Data set [1] has as its system HepG2 (human liver carcinoma cell line). The experiment in a line: MTT anti-proliferative assay, HepG2. Format: cell-based. The note with it: HepG2, mean of at least three experiments, read-out: Cytotoxicity IC50 HepG-2. As for the experimental part:
(§1) Sorafenib was used as a reference drug.
(§2) Anti-proliferative activity activities were tested using MTT assay as described in Supplementary Materials. […]
(§3) S2.1. In vitro anti-proliferative activities
(§4) The in vitro antiproliferative activities of all the synthesized compounds against three human tumor cell lines namely, MCF-7 (human breast cancer cell line), HepG2 (human liver […]
(§5) in the literature, using MTT assay protocol. Sorafenib was used in this test as a positive control.
(§6) The anti-proliferative activity was assessed quantitatively as follows.
(§7) Human cancer cell lines were seeded in 96-well plates at a density of 3-8 × 10^3 cells/well.
(§8) Next, the cells were incubated for 12 h in a 5% CO2 incubator at 37 °C. Then, for each well, the growth medium was exchanged with 0.1 ml of fresh medium containing graded concentrations of the test compounds or equal DMSO. Then 10 μl MTT solution ([…]) was added to each well, and the cells were incubated for additional 4 h. The crystals of MTT-formazan were dissolved in 100 μl of DMSO; the absorbance of each well was measured at 490 nm using an automatic ELISA reader system (TECAN, CHE). The IC50 values were calculated using the nonlinear regression fitting models (Graph Pad, Prism Version 5). The data represented the mean of three independent experiments in triplicate and were expressed as means ± SD. The IC50 value was […]
(§9) defined as the concentration at which 50% of the cells could survive. […]
(In general: Formazan colour is commonly taken as a measure of viable cells.)

A further data set concerns the target HDAC1 (Homo sapiens, UniProt Q13547). The experiment in a line: In vitro HDAC1 inhibitory assay. The format is biochemical.
Data set [2] concerns MCF-7 (human breast cancer cell line). The experiment in a line: MTT anti-proliferative assay, MCF-7. Format: cell-based. The note with it: MCF7, MCF-7, mean of at least three experiments, read-out: Cytotoxicity IC50 MCF-7. The method, then:
as §1, §2, §3, §4, §5, §6, §7, §8, §9

Data set [3] has as its system colorectal carcinoma (HCT-116). The experiment in a line: MTT anti-proliferative assay, HCT-116. Format: cell-based. The settings on record: Homo sapiens, HCT-116, read-out: Cytotoxicity IC50 HCT-116. The method, then: as §1, §2, §3, §4, §5, §6, §7, §8, §9
The target in the next data set is HDAC4 (Homo sapiens, UniProt P56524). The experiment in a line: In vitro HDAC4 inhibitory assay. The format is biochemical.

Molecules are shown by their SMILES. Some results are limits rather than exact numbers.

Sequence of HDAC1 (Q13547 whole entry): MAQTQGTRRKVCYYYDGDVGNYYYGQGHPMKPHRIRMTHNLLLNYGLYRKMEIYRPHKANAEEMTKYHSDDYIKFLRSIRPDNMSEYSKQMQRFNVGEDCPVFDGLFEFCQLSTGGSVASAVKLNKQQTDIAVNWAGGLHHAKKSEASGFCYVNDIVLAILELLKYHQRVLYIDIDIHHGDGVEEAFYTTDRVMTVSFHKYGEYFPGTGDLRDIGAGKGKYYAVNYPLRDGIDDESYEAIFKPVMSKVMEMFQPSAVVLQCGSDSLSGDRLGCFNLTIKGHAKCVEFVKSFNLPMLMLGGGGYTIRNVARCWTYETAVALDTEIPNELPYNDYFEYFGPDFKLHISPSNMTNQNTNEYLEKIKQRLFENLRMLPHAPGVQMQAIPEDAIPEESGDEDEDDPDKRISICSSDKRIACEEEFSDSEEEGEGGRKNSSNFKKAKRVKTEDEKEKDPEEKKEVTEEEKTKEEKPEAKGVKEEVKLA
Sequence of HDAC4 (P56524 whole entry): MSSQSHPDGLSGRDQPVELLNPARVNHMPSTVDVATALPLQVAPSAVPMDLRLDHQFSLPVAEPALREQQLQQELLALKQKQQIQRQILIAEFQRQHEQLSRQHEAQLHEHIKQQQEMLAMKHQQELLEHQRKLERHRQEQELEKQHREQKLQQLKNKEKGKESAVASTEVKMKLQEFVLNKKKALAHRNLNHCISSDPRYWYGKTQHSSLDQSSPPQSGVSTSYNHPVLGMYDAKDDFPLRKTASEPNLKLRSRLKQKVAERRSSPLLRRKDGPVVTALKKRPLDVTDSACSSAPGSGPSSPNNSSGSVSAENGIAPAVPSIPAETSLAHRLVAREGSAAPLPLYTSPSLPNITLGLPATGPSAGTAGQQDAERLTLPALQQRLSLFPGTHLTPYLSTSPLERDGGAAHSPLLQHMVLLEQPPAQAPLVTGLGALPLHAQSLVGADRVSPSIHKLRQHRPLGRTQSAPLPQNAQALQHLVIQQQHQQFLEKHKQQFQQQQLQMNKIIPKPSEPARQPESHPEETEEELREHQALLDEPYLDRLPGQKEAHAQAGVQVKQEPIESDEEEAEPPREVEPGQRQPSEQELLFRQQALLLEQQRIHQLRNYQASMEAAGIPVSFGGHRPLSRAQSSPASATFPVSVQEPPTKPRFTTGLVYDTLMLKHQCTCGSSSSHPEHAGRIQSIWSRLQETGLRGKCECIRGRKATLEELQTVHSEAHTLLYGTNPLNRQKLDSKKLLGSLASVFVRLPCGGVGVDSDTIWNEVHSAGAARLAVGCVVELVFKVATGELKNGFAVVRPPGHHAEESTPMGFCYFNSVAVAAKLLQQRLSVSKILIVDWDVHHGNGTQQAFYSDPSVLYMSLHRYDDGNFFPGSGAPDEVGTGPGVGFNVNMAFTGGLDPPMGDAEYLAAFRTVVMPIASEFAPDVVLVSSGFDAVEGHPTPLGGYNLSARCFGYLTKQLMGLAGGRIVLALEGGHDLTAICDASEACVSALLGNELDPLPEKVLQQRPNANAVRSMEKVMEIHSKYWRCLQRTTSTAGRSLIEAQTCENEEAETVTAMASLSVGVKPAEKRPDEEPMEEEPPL

With `CCn1c(N)c(C(c2ccccc2)c2c(N)n(CC)c(=S)[nH]c2=O)c(=O)[nH]c1=S` [Compound 5a, 5,5′-(Phenylmethylene)bis(6-amino-1-ethyl-2-thioxo-2,3-dihydropyrimidin-4(1H)-one)], the melting point is > 300 °C. For the same compound, the IC50 in data set [1] turned out to be 39 ± 2.5 µM. The compound further had an IC50 against HDAC1 of 3.11 µM. Further, the IC50 in data set [2] was determined as 11 ± 1.6 µM. In data set [3], the IC50 is 88 ± 2.4 µM. The IC50 against HDAC4 is 12.2 µM.
As to `CCn1c(N)c(C(c2ccc(C)cc2)c2c(N)n(CC)c(=S)[nH]c2=O)c(=O)[nH]c1=S` [Compound 5b, 5,5′-(p-Tolylmethylene)bis(6-amino-1-ethyl-2-thioxo-2,3-dihydropyrimidin-4(1H)-one)], the melting point was 239 to 240 °C. The IC50 in data set [1] was found to be 51 ± 4 µM. In addition, the IC50 against HDAC1 was 2.27 µM. For the same compound, the IC50 in data set [2] came out at 55 ± 2.8 µM. Moreover, in data set [3], the IC50 turned out to be 21 ± 2.4 µM. The compound also showed an IC50 on HDAC4 of 18 µM.
As for `CCn1c(N)c(C(c2ccc(Cl)cc2)c2c(N)n(CC)c(=S)[nH]c2=O)c(=O)[nH]c1=S` [Compound 5c, 5,5′-((4-Chlorophenyl)methylene)bis(6-amino-1-ethyl-2-thioxo-2,3-dihydropyrimidin-4(1H)-one)], the melting point is > 300 °C. The IC50 in data set [1] was 89 ± 2.4 µM. The IC50 in data set [2] was 77 ± 2.3 µM. Besides, the IC50 in data set [3] was found to be 97 ± 1.2 µM.
With `CCn1c(N)c(C(c2ccc(Cl)cc2Cl)c2c(N)n(CC)c(=S)[nH]c2=O)c(=O)[nH]c1=S` [Compound 5d, 5,5′-((2,4-Dichlorophenyl)methylene)bis(6-amino-1-ethyl-2-thioxo-2,3-dihydropyrimidin-4(1H)-one)], the melting point was in the range of 272 to 273 °C. Besides, in data set [1], the IC50 amounted to 40 ± 2.7 µM. In data set [2], the IC50 worked out at 62 ± 2.1 µM. Also, the IC50 in data set [3] was found to be 281 ± 2.1 µM.
Compound `CCn1c(N)c(C(c2ccc(OC)cc2)c2c(N)n(CC)c(=S)[nH]c2=O)c(=O)[nH]c1=S` [Compound 5e, 5,5′-((4-Methoxyphenyl)methylene)bis(6-amino-1-ethyl-2-thioxo-2,3-dihydropyrimidin-4(1H)-one)] yielded a melting point of 260 to 261 °C. Besides, the IC50 in data set [1] turned out to be 42 ± 2 µM. Moreover, the IC50 in data set [2] came out at 60 ± 0.49 µM. For the same compound, in data set [3], the IC50 was found to be 90 ± 3 µM.
The like results for `CCn1c(N)c(C(c2cccs2)c2c(N)n(CC)c(=S)[nH]c2=O)c(=O)[nH]c1=S` [Compound 5g, 5,5′-(Thiophen-2-ylmethylene)bis(6-amino-1-ethyl-2-thioxo-2,3-dihydropyrimidin-4(1H)-one)] were, in that order, 271 to 272 °C, 33 ± 3.8 µM, 21 ± 2.2 µM and 68 ± 1.8 µM.
Turning to `CCCn1c(N)c(Cc2c(N)n(CCC)c(=O)[nH]c2=O)c(=O)[nH]c1=O` [Compound 5h, 5,5′-Methylenebis(6-amino-1-propylpyrimidine-2,4(1H,3H)-dione)], the IC50 in data set [1] was found to be 52 ± 3.2 µM; in data set [2], 88 ± 2.5 µM; in data set [3], 91 ± 1.9 µM.
In turn, `CCCn1c(N)c(C(c2ccc(C)cc2)c2c(N)n(CCC)c(=O)[nH]c2=O)c(=O)[nH]c1=O` [Compound 5j, 5,5′-(p-Tolylmethylene)bis(6-amino-1-propylpyrimidine-2,4(1H,3H)-dione)] displayed a melting point of 286 to 287 °C. Also, in data set [1], the IC50 worked out at 38 ± 1.8 µM. Moreover, the IC50 in data set [2] came to 71 ± 2 µM. Besides, the IC50 in data set [3] was determined as 400 ± 2.4 µM.
The like results for `CCCn1c(N)c(C(c2ccc(OC)cc2)c2c(N)n(CCC)c(=O)[nH]c2=O)c(=O)[nH]c1=O` [Compound 5l, 5,5′-((4-Methoxyphenyl)methylene)bis(6-amino-1-propylpyrimidine-2,4(1H,3H)-dione)] were, in that order, 289 to 290 °C, 31 ± 2 µM, 381 ± 1.5 µM and 83 ± 1.9 µM.
Regarding `CCn1c2c(c(=O)[nH]c1=S)C(c1ccccc1)c1c(n(CC)c(=S)[nH]c1=O)N2` [Compound 6a, 1,9-Diethyl-5-phenyl-2,8-dithioxo-2,3,5,8,9,10-hexahydropyrido[2,3-d:6,5-d′]dipyrimidine-4,6(1H,7H)-dione], the melting point was in the range of 255 to 256 °C. The IC50 in data set [1] was found to be 220 ± 3 µM. In data set [2], the IC50 is 333 ± 2.9 µM. The IC50 in data set [3] stood at 291 ± 3.5 µM.
As to `CCn1c2c(c(=O)[nH]c1=S)C(c1ccc([N+](=O)[O-])cc1)c1c(n(CC)c(=S)[nH]c1=O)N2` [Compound 6b, 1,9-Diethyl-5-(4-nitrophenyl)-2,8-dithioxo-2,3,5,8,9,10-hexahydropyrido[2,3-d:6,5-d′]dipyrimidine-4,6(1H,7H)-dione], the melting point was 251 to 252 °C. In addition, in data set [1], the IC50 was 184 ± 3.7 µM. In addition, the 50% inhibitory concentration (IC50) in data set [2] is 577 ± 20 µM. In addition, the IC50 in data set [3] was found to be 299 ± 2 µM.
`CCCn1c2c(c(=O)[nH]c1=O)C(c1ccc(OC)cc1)c1c(n(CCC)c(=O)[nH]c1=O)N2` [Compound 6c, 5-(4-Methoxyphenyl)-1,9-dipropyl-5,10-dihydropyrido[2,3-d:6,5-d′]dipyrimidine-2,4,6,8(1H,3H,7H,9H)-tetraone] had a melting point of 180 to 181 °C. Besides, in data set [1], the IC50 was 114 ± 2.2 µM. Besides, the half-maximal inhibitory concentration (IC50) in data set [2] was 435 ± 4.3 µM. Also, the IC50 in data set [3] is 466 ± 4.6 µM.
Consider `CCCn1c2c(c(=O)[nH]c1=O)Cc1c(n(CCC)c(=O)[nH]c1=O)N2` [Compound 6d, 1,9-Dipropyl-5,10-dihydropyrido[2,3-d:6,5-d′]dipyrimidine-2,4,6,8 (1H,3H,7H,9H)-tetraone], for which the values for the IC50 in data set [1], in data set [2] and in data set [3] were 168 ± 1.5 µM, 413 ± 1.3 µM and 361 ± 2 µM, respectively.
The compound `CCn1c(=S)[nH]c(=O)c2c(-c3ccc(Cl)cc3)c3c(=O)[nH]c(=S)n(CC)c3nc21` [Compound 7a, 5-(4-Chlorophenyl)-1,9-diethyl-2,8-dithioxo-2,3,8,9-tetrahydropyrido[2,3-d:6,5-d′]dipyrimidine-4,6(1H,7H)-dione] gave a melting point of 224 to 225 °C. In addition, the IC50 in data set [1] worked out at 189 ± 4.8 µM. In addition, the IC50 in data set [2] was found to be 472 ± 3.2 µM. For the same compound, in data set [3], the IC50 amounted to 361 ± 1.9 µM.
`CCn1c(=S)[nH]c(=O)c2c(-c3ccc(OC)cc3)c3c(=O)[nH]c(=S)n(CC)c3nc21` [Compound 7b, 1,9-Diethyl-5-(4-methoxyphenyl)-2,8-dithioxo-2,3,8,9-tetrahydropyrido[2,3-d:6,5-d′]dipyrimidine-4,6(1H,7H)-dione] showed a melting point of 221 °C. For the same compound, the IC50 in data set [1] worked out at 173 ± 4.5 µM. Also, the IC50 in data set [2] was 871 ± 3.2 µM. The IC50 in data set [3] was 301 ± 3.4 µM.
The compound `CCn1c(=S)[nH]c(=O)c2c(-c3cccs3)c3c(=O)[nH]c(=S)n(CC)c3nc21` [Compound 7c, 1,9-Diethyl-5-(thiophen-2-yl)-2,8-dithioxo-2,3,8,9-tetrahydropyrido[2,3-d:6,5-d′]dipyrimidine-4,6(1H,7H)-dione] showed a melting point of 216 to 217 °C. Also, the IC50 in data set [1] came out at 221 ± 2.5 µM. Besides, the IC50 in data set [2] stood at 450 ± 2.2 µM. The IC50 in data set [3] was 243 ± 2.2 µM.
For the compound `CNC(=O)c1cc(Oc2ccc(NC(=O)Nc3ccc(Cl)c(C(F)(F)F)c3)cc2)ccn1` [Sorafenib, reference compound], the IC50 in data set [1] was found to be 17 ± 2.3 µM; in data set [2], 141 ± 3 µM; in data set [3], 177 ± 0.9 µM.

A word on the melting point: it is the temperature of the solid-liquid transition. In general, IC50 refers to the concentration that gives 50% inhibition.

The values are drawn from article PMC10384246, “Discovery of New Uracil and Thiouracil Derivatives as Potential HDAC Inhibitors” (Pharmaceuticals, 2023).
